Our source for the IC50 and Activity values is ChEMBL document CHEMBL3865802, “Natural product-inspired rational design, synthesis and biological evaluation of 2,3-dihydropyrano[2,3-f]chromen-4(8H)-one based hybrids as potential mitochondrial apoptosis inducers” (Eur J Med Chem, 2016).

Calls of active or inactive are those of the source. The calls are words filed in the database; no cut-off is given here.

The term IC50 denotes the concentration needed to halve the response being measured.

A short description of series [1]: Cytotoxicity against human MCF7 cells assessed as cell growth inhibition after 24 hrs by MTT assay. The settings on record: MCF7, 24 h. Type of series: functional, cell-based.
Series [2] can be described thus: Cytotoxicity against human A549 cells assessed as cell growth inhibition after 24 hrs by MTT assay. Type of series: functional, cell-based. The settings on record: A549, 24 h.
A short description of series [3]: Cytotoxicity against human HeLa cells assessed as cell growth inhibition after 24 hrs by MTT assay. Type of series: functional, cell-based.
Series [4] can be described thus: Downregulation of Bcl2 mRNA expression in human MCF7 cells assessed as Bcl2 mRNA expression level at antiproliferative IC50 after 12 hrs by RT-qPCR analysis relative to control. The class given is functional, cell-based. For orientation: Real-time PCR tracks product formation cycle by cycle.
Series [5] is described as follows: Hemolytic activity against human RBC at 14.36 uM after 4 hrs. Type of series: ADME, cell-based. The settings on record: erythrocyte.
Series [6] relates to MCF7. Kind of series: Induction of apoptosis in human MCF7 cells assessed as increase in number of abnormal cells at antiproliferative IC50 by hoechst 33258 staining-based fluorescent microscopic analysis. The class given is functional, cell-based. The settings on record: TDE = time-dependent effect.
For series [7], the system named is MCF7. Kind of series: Induction of apoptosis in human MCF7 cells at antiproliferative IC50 assessed as late apoptotic cells after 48 hrs by AO/EB dual staining-based fluorescent microscopic analysis. The class given is functional, cell-based.
Series [8] concerns MCF7. Kind of series: Induction of apoptosis in human MCF7 cells assessed as morphological changes at antiproliferative IC50 by AO/EB dual staining-based fluorescent microscopic analysis. Type of series: functional, cell-based. The settings on record: TDE = time-dependent effect.
Series [9] has as its system MCF7. Kind of series: Induction of apoptosis in human MCF7 cells assessed as plasma membrane blebbing at antiproliferative IC50 after 48 hrs by hoechst 33258 staining-based fluorescent microscopic analysis. The class given is functional, cell-based.
A short description of series [10]: Downregulation of Bcl2 mRNA expression in human MCF7 cells assessed as Bcl2 mRNA expression level at antiproliferative IC50 after 48 hrs by RT-qPCR analysis relative to control. The class given is functional, cell-based.
The subject of series [11] is MCF7. Kind of series: Induction of apoptosis in human MCF7 cells assessed as fragmented nuclei at antiproliferative IC50 after 24 hrs by hoechst 33258 staining-based fluorescent microscopic analysis. The class given is functional, cell-based.
Series [12] relates to MCF7. Kind of series: Induction of apoptosis in human MCF7 cells assessed as chromatin condensation at antiproliferative IC50 after 24 hrs by hoechst 33258 staining-based fluorescent microscopic analysis. Type of series: functional, cell-based.
Series [13] has as its system MCF7. Kind of series: Induction of mitochondrial membrane potential depolarization in human MCF7 cells assessed as increase in green fluorescence at 14.3 uM after 24 to 48 hrs by JC-1 staining-based fluorescent microscopic analysis. The class given is functional, cell-based.
The test system of series [14] is MCF7. Kind of series: Induction of apoptosis in human MCF7 cells assessed as cytoskeleton breakdown at antiproliferative IC50 after 48 hrs by hoechst 33258 staining-based fluorescent microscopic analysis. Type of series: functional, cell-based.
Series [15] in a line: Downregulation of Bcl2 mRNA expression in human MCF7 cells assessed as Bcl2 mRNA expression level at antiproliferative IC50 after 24 hrs by RT-qPCR analysis relative to control. The class given is functional, cell-based.
Series [16] deals with MCF7. Kind of series: Induction of apoptosis in human MCF7 cells assessed as early apoptotic cells at antiproliferative IC50 after 24 hrs by AO/EB dual staining-based fluorescent microscopic analysis. The class given is functional, cell-based.
A short description of series [17]: Downregulation of Bcl2 protein expression in human MCF7 cells at antiproliferative IC50 after 24 hrs by Western blot analysis. The class given is functional, cell-based.
Series [18] relates to MCF7. Kind of series: Induction of mitochondrial membrane potential loss in human MCF7 cells assessed as accumulation of cells at lower right quadrant at 14.3 uM after 48 hrs by JC-1 staining-based fluorescent microscopic analysis (reference value: 0.1 %). The class given is functional.
The test system of series [19] is MCF7. Kind of series: Induction of apoptosis in human MCF7 cells assessed as presence of apoptotic bodies at antiproliferative IC50 after 24 hrs by hoechst 33258 staining-based fluorescent microscopic analysis. The class given is functional, cell-based.
A short description of series [20]: Upregulation of Bax protein expression in human MCF7 cells at antiproliferative IC50 after 24 hrs by Western blot analysis. The class given is functional, cell-based.
Series [21] deals with MCF7. Kind of series: Induction of mitochondrial membrane potential loss in human MCF7 cells assessed as accumulation of cells at upper right quadrant at 14.3 uM after 48 hrs by JC-1 staining-based fluorescent microscopic analysis (reference value: 0.2 %). The class given is functional.
The test system of series [22] is MCF7. Kind of series: Induction of apoptosis in human MCF7 cells assessed as DNA fragmentation at antiproliferative IC50 after 24 hrs by ethidium bromide staining based agarose gel electrophoresis method. The class given is functional, cell-based.
Series [23] relates to MCF7. Kind of series: Induction of mitochondrial membrane potential depolarization in human MCF7 cells assessed as increase in green fluorescence at 26.2 uM after 24 to 48 hrs by JC-1 staining-based fluorescent microscopic analysis. Type of series: functional, cell-based.
Series [24] deals with MCF7. Kind of series: Induction of mitochondrial membrane potential loss in human MCF7 cells assessed as accumulation of cells at lower right quadrant at 26.2 uM after 48 hrs by JC-1 staining-based fluorescent microscopic analysis (reference value: 0.1 %). Type of series: functional.
Series [25] is described as follows: Hemolytic activity against human RBC at 26.2 uM after 4 hrs. The class given is ADME, cell-based. The settings on record: erythrocyte.
Series [26] concerns MCF7. Kind of series: Induction of mitochondrial membrane potential loss in human MCF7 cells assessed as accumulation of cells at upper right quadrant at 26.2 uM after 48 hrs by JC-1 staining-based fluorescent microscopic analysis (reference value: 0.2 %). Type of series: functional.
Series [27] can be described thus: Hemolytic activity against human RBC at 28.7 uM after 4 hrs. Type of series: ADME, cell-based. As to conditions: erythrocyte.
Series [28] in a line: Hemolytic activity against human RBC at 31.2 uM after 4 hrs. Type of series: ADME, cell-based. As to conditions: erythrocyte.

For `COc1cc2c(cc1OC)[C@@H]1C(=O)c3ccc4c(c3O[C@@H]1CO2)C=CC(C)(C)O4` [DEGUELIN], the IC50 in series [1] came to 10.6 µM.

Take `CC1Oc2c(cc(C(=O)Nc3nnc(-c4cccs4)s3)c3c2C=CC(C)(C)O3)C(=O)C1C` (stereo unspecified): the values for the IC50 in [2], in series [3] and in series [1] were 74.5 µM, 92.8 µM and 78.2 µM, respectively.

In the case of `Cc1ccc(-c2nnc(NC(=O)c3cc4c(c5c3OC(C)(C)C=C5)OC(C)C(C)C4=O)s2)cc1` (stereo unspecified), the Activity was 82.7% in [4]; “Non-Toxic” in [5]; “Tde” in series [6]; “Tde” in [8]; 39.7% in [10]; 46% in series [15]. Besides, the values for the Activity in series [18] and in series [21] were 13.7% and 86.3%, respectively. The outcome in series [7], in [9], in [11], in [12], in [13] and in series [14] was Active. Moreover, the outcome in series [16], in [17], in series [19], in series [20] and in [22] was Active. For the same compound, the figures for the IC50 in series [2], in series [3] and in series [1] were 20.2 µM, 25.2 µM and 14.3 µM, respectively.

For the compound `CC1Oc2c(cc(C(=O)Nc3ccncc3)c3c2C=CC(C)(C)O3)C(=O)C1C` (stereo unspecified), the Activity in series [4] was 92.2%; in [6] it was “Tde”; in series [8], “Tde”; in [10], 57%; in series [24] it was 20.2%; in [15] it was 64%. In addition, the Activity result in series [25] is “Non-Toxic”; in series [26] it was 79.8%. The outcome in [7], in series [9], in [23], in series [11], in series [12] and in [14] was Active. The outcome in [16], in [17], in series [19], in series [20] and in series [22] was Active. In addition, the IC50 in series [2] turned out to be 39.3 µM; in [3] it was 28.6 µM; in [1], 26.2 µM.

As to `CC1Oc2c(cc(C(=O)Nc3cccnc3)c3c2C=CC(C)(C)O3)C(=O)C1C` (stereo unspecified), the Activity result in series [6] is “Tde”; in series [8] it was “Tde”; in [27], “Non-Toxic”. Besides, the result in series [7], in series [9], in series [11], in series [12], in series [14] and in [16] was Active. Besides, the result in [17], in [19], in [20] and in series [22] was Active. Besides, the 50% inhibitory concentration (IC50) in series [2] is 26.9 µM; in series [3] it was 41.2 µM; in [1] it was 28.7 µM.

For `CC1Oc2c(cc(C(=O)O)c3c2C=CC(C)(C)O3)C(=O)C1C` (stereo unspecified), the IC50 stood at 116 µM in series [2], 102 µM in [3] and 88.7 µM in series [1].

Turning to `CC1Oc2c(cc(C(=O)Nc3nnc(-c4ccccc4)s3)c3c2C=CC(C)(C)O3)C(=O)C1C` (stereo unspecified), the results for the half-maximal inhibitory concentration (IC50) in series [2], in series [3] and in series [1] were 32.4 µM, 40.2 µM and 37.8 µM, respectively.

With `CC1Oc2c(cc(C(=O)Nc3nnc(-c4ccc([N+](=O)[O-])cc4)s3)c3c2C=CC(C)(C)O3)C(=O)C1C` (stereo unspecified), the Activity entry is “Tde” in series [6], “Tde” in [8] and “Non-Toxic” in [28]. Further, the result in series [7], in series [9], in series [11], in series [12], in series [14] and in series [16] was Active. The outcome in [17], in series [19], in [20] and in series [22] was Active. Further, the IC50 in series [2] came to 42.3 µM; in series [3], 42.9 µM; in [1], 31.2 µM.

In the case of `CC1Oc2c(cc(C(=O)Nc3cccc4ccccc34)c3c2C=CC(C)(C)O3)C(=O)C1C` (stereo unspecified), the IC50 in series [2] was found to be 58.1 µM; in series [3], 41.7 µM; in series [1], 48.1 µM.

As for `c1ccc([C@H]2CN3CCSC3=N2)cc1` [LEVAMISOLE], the IC50 in series [2] was greater than 100 µM; in [3] it was 96 µM; in [1], greater than 100 µM.

Turning to `COc1cc(-c2nnc(NC(=O)c3cc4c(c5c3OC(C)(C)C=C5)OC(C)C(C)C4=O)s2)cc(OC)c1OC` (stereo unspecified), the IC50 turned out to be 79.3 µM in [2], 97.8 µM in [3] and 70 µM in series [1].

For the compound `CC1Oc2c(cc(C(=O)Nc3nnc(-c4ccncc4)s3)c3c2C=CC(C)(C)O3)C(=O)C1C` (stereo unspecified), the figures for the IC50 in series [2], in [3] and in series [1] were 75 µM, 74.3 µM and 57.9 µM, respectively.

For `CC1Oc2c(cc(C(=O)Nc3nccs3)c3c2C=CC(C)(C)O3)C(=O)C1C` (stereo unspecified), the IC50 in [2] was 64.4 µM; in [3], 84 µM; in series [1], 75 µM.
